In patent publication US20250282749A1 (Tango Therapeutics, Inc., priority 2022, published 2025):

Legend:
Format in all cases: cell-based
[1] = tested on: HAP1 MTAP-deleted cell line; experiment: viability assay for the MTAP-deleted cell line; details: Homo sapiens
[2] = tested on: PRMT5 (SDMA) in HAP1 MTAP-intact cell line; experiment: SDMA in-cell western assay, HAP1 MTAP-intact cell line; details: Homo sapiens, HAP1 MTAP-intact cell line (endogenous MTAP), read-out: Hap 1 MTAP intact IC50
Description: (§1) HAP1 MTAP-intact is a cell line in which endogenous levels of MTAP are expressed, and HAP1 MTAP-deleted is an MTAP-null cell line.

[3] = tested on: PRMT5 (SDMA) in HAP1 MTAP-deleted cell line; experiment: SDMA in-cell western assay, HAP1 MTAP-deleted cell line; details: for IC50 / IC90: Homo sapiens, SDMA in-cell western, HAP1 MTAP-deleted (MTAP-null) cell line; for Hap1 MTAP intact/deleted ratio: ratio of SDMA in-cell western IC50 in HAP1 MTAP-intact to IC50 in HAP1 MTAP-deleted cell line
Description: as §1

Row | SMILES | IC50 [2] [nM] | IC50 [3] [nM] | IC90 [3] [nM] | IC50 [1] [nM] | Hap1 MTAP intact/deleted ratio [3]
1 | Cc1cc(NC(=O)C(=O)N2C[C@@H](C)N(C(=O)C(C)(C)C)C[C@@H]2c2cccc(N3CCN(C)CC3)c2)cnc1N [Compound 7, N-(6-amino-5-methylpyridin-3-yl)-2-((2S,5R)-5-methyl-2-(3-(4-methylpiperazin-1-yl)phenyl)-4-pivaloylpiperazin-1-yl)-2-oxoacetamide] | < 5 | < 5 | < 75 | < 100 | C (an IC50 ratio of less than 15 fold)
2 | COc1ncc(NC(=O)C(=O)N2C[C@@H](C)N(C(=O)C(C)C)C[C@@H]2c2ccc(F)c(Cl)c2)cc1C(N)=O [Compound 12, 5-(2-((2S,5R)-2-(3-chloro-4-fluorophenyl)-4-isobutyryl-5-methylpiperazin-1-yl)-2-oxoacetamido)-2-methoxynicotinamide] | > 50 | 5 to 50 | > 125 | 100 to 1000 | A (an IC50 ratio greater than or equal to 30 fold)
3 | CCc1cc(NC(=O)C(=O)N2C[C@@H](C)N(C(=O)C(C)(C)CN(C)C)C[C@@H]2c2ccccc2)cnc1N [Compound 37] | > 50 | < 5 | < 75 | < 100 | A (an IC50 ratio greater than or equal to 30 fold)
4 | CCc1cc(NC(=O)C(=O)N2C[C@@H](C)N(C(=O)C3(C(F)(F)F)CC3)C[C@@H]2c2ccccc2)cnc1N [Compound 81, N-(6-amino-5-ethylpyridin-3-yl)-2-((2S,5R)-5-methyl-2-phenyl-4-(1-(trifluoromethyl)cyclopropanecarbonyl)piperazin-1-yl)-2-oxoacetamide] | > 50 | 5 to 50 | 75 to 125 | < 100 | B (an IC50 ratio greater than or equal to 15 fold but lower than 30 fold)
5 | C[C@@H]1CN(C(=O)C(=O)Nc2cnc(N)c(C3COC3)c2)[C@@H](c2ccc(F)cc2)CN1C(=O)C1(C(F)(F)F)CC1 [Compound 72, N-(6-amino-5-(oxetan-3-yl)pyridin-3-yl)-2-((2S,5R)-2-(4-fluorophenyl)-5-methyl-4-(1-(trifluoromethyl)cyclopropanecarbonyl)piperazin-1-yl)-2-oxoacetamide] | > 50 | 5 to 50 | 75 to 125 | < 100 | A (an IC50 ratio greater than or equal to 30 fold)
6 | Cc1cc(NC(=O)C(=O)N2C[C@@H](C)N(C(=O)C(C)(C)N(C)C)C[C@@H]2c2ccccc2)cnc1N [Compound 28] | > 50 | 5 to 50 | 75 to 125 | < 100 | B (an IC50 ratio greater than or equal to 15 fold but lower than 30 fold)
7 | CCc1cc(NC(=O)C(=O)N2C[C@@H](C)N(C(=O)C(C)C)C[C@@H]2c2ccc(F)c(Cl)c2)cnc1N [Compound 87, N-(6-amino-5-ethylpyridin-3-yl)-2-((2S,5R)-2-(3-chloro-4-fluorophenyl)-4-isobutyryl-5-methylpiperazin-1-yl)-2-oxoacetamide] | > 50 | < 5 | > 125 | < 100 | A (an IC50 ratio greater than or equal to 30 fold)
8 | Cc1cc(NC(=O)C(=O)N2C[C@H](C)N(CC(C)C)C[C@H]2c2ccc(F)cc2)cnc1N [Compound 80, N-(6-amino-5-methyl-3-pyridyl)-2-[(2R,5S)-2-(4-fluorophenyl)-4-isobutyl-5-methyl-piperazin-1-yl]-2-oxo-acetamide] | > 50 | 5 to 50 | > 125 | 100 to 1000 | C (an IC50 ratio of less than 15 fold)
9 | C[C@@H]1CN(C(=O)C(=O)Nc2cncc3cn[nH]c23)[C@@H](c2cccc(Cl)c2)CN1C(=O)C(C)(C)C [Compound 9, 2-((2S,5R)-2-(3-chlorophenyl)-5-methyl-4-pivaloylpiperazin-1-yl)-2-oxo-N-(1H-pyrazolo[4,3-c]pyridin-7-yl)acetamide] | > 50 | 5 to 50 | > 125 | 100 to 1000 | B (an IC50 ratio greater than or equal to 15 fold but lower than 30 fold)
10 | CCc1cc(NC(=O)C(=O)N2C[C@@H](C)N(C(=O)C(C)C)C[C@@H]2c2cccc(OCCN(C)C)c2)cnc1N [Compound 67, N-(6-amino-5-ethylpyridin-3-yl)-2-((2S,5R)-2-(3-(2-(dimethylamino)ethoxy)phenyl)-4-isobutyryl-5-methylpiperazin-1-yl)-2-oxoacetamide] | 5 to 50 | < 5 | < 75 | < 100 | C (an IC50 ratio of less than 15 fold)
11 | CCc1cc(NC(=O)C(=O)N2C[C@@H](C)N(C(=O)C(C)C)C[C@@H]2c2cccc(N3CCN(C)CC3)c2)cnc1N [Compound 41, N-(6-amino-5-ethylpyridin-3-yl)-2-((2S,5R)-4-isobutyryl-5-methyl-2-(3-(4-methylpiperazin-1-yl)phenyl)piperazin-1-yl)-2-oxoacetamide] | 5 to 50 | < 5 | < 75 | < 100 | C (an IC50 ratio of less than 15 fold)
12 | C[C@@H]1CN(C(=O)C(=O)Nc2cnc(N)c3cn[nH]c23)[C@@H](c2ccccc2)CN1C(=O)C(C)(C)CN(C)C [Compound 54, N-(4-amino-1H-pyrazolo[4,3-c]pyridin-7-yl)-2-oxo-2-[(2S,5R)-4-[3-(dimethylamino)-2,2-dimethyl-propanoyl]-5-methyl-2-phenyl-piperazin-1-yl]acetamide] | 5 to 50 | 5 to 50 | < 75 | < 100 | C (an IC50 ratio of less than 15 fold)

The next lines start with results.

Row | IC50 [2] [nM] | IC50 [3] [nM] | IC90 [3] [nM] | SMILES | IC50 [1] [nM] | Hap1 MTAP intact/deleted ratio [3]
13 | > 50 | 5 to 50 | 75 to 125 | C[C@@H]1CN(C(=O)C(=O)Nc2cnc(N)c3c2cnn3C)[C@@H](c2ccccc2)CN1C [Compound 164, N-(7-Amino-1-methyl-pyrazolo[3,4-c]pyridin-4-yl)-2-oxo-2-[(2S,5R)-4,5-dimethyl-2-phenyl-piperazin-1-yl]acetamide] | < 100 | A (an IC50 ratio greater than or equal to 30 fold)
14 | 5 to 50 | 5 to 50 | < 75 | Cc1cc(NC(=O)C(=O)N2C[C@@H](C)N(C(=O)C(C)C)C[C@@H]2c2cccc(N3CCN(C)CC3)c2)cnc1N [Compound 117, N-(6-amino-5-methylpyridin-3-yl)-2-((2S,5R)-4-isobutyryl-5-methyl-2-(3-(4-methylpiperazin-1-yl)phenyl)piperazin-1-yl)-2-oxoacetamide] | < 100 | C (an IC50 ratio of less than 15 fold)
15 | > 50 | 5 to 50 | 75 to 125 | Cc1cc(NC(=O)C(=O)N2C[C@@H](C)N(C(=O)OC3(C)CC3)C[C@@H]2c2ccc(F)cc2)cnc1N [Compound 120] | 100 to 1000 | B (an IC50 ratio greater than or equal to 15 fold but lower than 30 fold)
16 | > 50 | 5 to 50 | > 125 | Cc1cc(NC(=O)C(=O)N2C[C@@H](C)N(C(=O)C3(C(F)(F)F)CC3)C[C@@H]2c2ccsc2)cnc1N [Compound 138, N-(6-amino-5-methyl-3-pyridyl)-2-[(2S,5R)-5-methyl-2-(3-thienyl)-4-[1-(trifluoromethyl)cyclopropanecarbonyl]piperazin-1-yl]-2-oxo-acetamide] | < 100 | A (an IC50 ratio greater than or equal to 30 fold)
17 | > 50 | > 50 | > 125 | Cc1cc(NC(=O)C(=O)N2C[C@@H](C)N(CC(C)C)C[C@@H]2c2ccc(F)cc2)cnc1N [Compound 154, N-(6-amino-5-methyl-3-pyridyl)-2-[(2S,5R)-2-(4-fluorophenyl)-4-isobutyl-5-methyl-piperazin-1-yl]-2-oxo-acetamide] | > 1000 | C (an IC50 ratio of less than 15 fold)
18 | 5 to 50 | < 5 | < 75 | CCc1cc(NC(=O)C(=O)N2C[C@@H](C)N(C(=O)C3(C(F)(F)F)CC3)C[C@@H]2c2ccc(N3CCN(C)CC3)cc2)cnc1N [Compound 132, N-(6-amino-5-ethylpyridin-3-yl)-2-((2S,5R)-5-methyl-2-(4-(4-methylpiperazin-1-yl)phenyl)-4-(1-(trifluoromethyl)cyclopropanecarbonyl)piperazin-1-yl)-2-oxoacetamide] | < 100 | C (an IC50 ratio of less than 15 fold)
19 | 5 to 50 | < 5 | 75 to 125 | Cc1cc(NC(=O)C(=O)N2C[C@@H](C)N(C(=O)C3(C(F)(F)F)CC3)C[C@@H]2c2cccs2)cnc1N [Compound 111, N-(6-amino-5-methyl-3-pyridyl)-2-[(2R,5R)-5-methyl-2-(2-thienyl)-4-[1-(trifluoromethyl)cyclopropanecarbonyl]piperazin-1-yl]-2-oxo-acetamide] | < 100 | C (an IC50 ratio of less than 15 fold)
20 | > 50 | < 5 | < 75 | CCc1cc(NC(=O)C(=O)N2C[C@@H](C)N(C(=O)C3(C(F)(F)F)CC3)C[C@@H]2c2ccc(F)cc2)cnc1N [Compound 116, N-(6-amino-5-ethylpyridin-3-yl)-2-((2S,5R)-2-(4-fluorophenyl)-5-methyl-4-(1-(trifluoromethyl)cyclopropanecarbonyl)piperazin-1-yl)-2-oxoacetamide] | < 100 | A (an IC50 ratio greater than or equal to 30 fold)
